Assay results from PMC6112376, “Comprehensive Analyses and Prioritization of Tox21 10K Chemicals Affecting Mitochondrial Function by in-Depth Mechanistic Studies” (Environmental Health Perspectives, 2018).
Where a name gives a salt, the structure may show the parent alone. Read-outs that look alike come from different tables or passages of the source.

Key:
HepG2 cells [1] = conditions: cited from earlier work
HepG2 cells [2] = assay: cells; conditions: Homo sapiens; for IC50: HepG2, read-out: MMP assays IC50 (µM) HepG2; for Emax: HepG2, read-out: MMP assays efficacy (%) HepG2
rat primary hepatocytes = assay: MMP assay in rat primary hepatocytes; conditions: for IC50: Rattus norvegicus, Hepatocyte, read-out: MMP assays IC50 (µM) Rat Hepatocytes; for MMP assays efficacy (%) Rat Hepatocytes / MMP assays IC50 (µM) Rat Hepatocytes: mean ± SD of three experiments
[3] = read-out: MMP assays IC50 (µM) qHTS-HepG2
[4] = read-out: MMP assays IC50 (µM), qHTS-HepG2

CC(C)(C)c1cc(/C=C2\SC(N)=NC2=O)cc(C(C)(C)C)c1O [Darbufelone mesylate]
MMP assays efficacy (%) qHTS-HepG2 (HepG2 cells [1]): -110±13%
IC50 (HepG2 cells [1]; [3]): 11.7 ± 2.02 µM
IC50 (HepG2 cells [2]): 5.62 µM
Emax (HepG2 cells [2]): 102%
IC50 (rat primary hepatocytes): 7.15 ± 5.41 µM
MMP assays efficacy (%) Rat Hepatocytes (rat primary hepatocytes): -105±22%

O=[N+]([O-])c1ccc(O)c2ncccc12 [Nitroxoline]
MMP assays efficacy (%) qHTS-HepG2 (HepG2 cells [1]): -80±8%
IC50 (HepG2 cells [1]; [4]): 9.22 ± 2.41 µM
IC50 (HepG2 cells [2]): 19.9 µM
Emax (HepG2 cells [2]): 94%
IC50 (rat primary hepatocytes): 72.3 ± 39.1 µM
MMP assays efficacy (%) Rat Hepatocytes (rat primary hepatocytes): -69±54%

CC(=O)Oc1ccc2c(c1)CC[C@@H]1[C@@H]2CC[C@]2(C)[C@@H](O)CC[C@@H]12 [Estradiol acetate]
MMP assays efficacy (%) qHTS-HepG2 (HepG2 cells [1]): -85±4%
IC50 (HepG2 cells [1]; [3]): 9.08 ± 0.59 µM
IC50 (HepG2 cells [2]): 17.3 µM
Emax (HepG2 cells [2]): 95%
MMP assays IC50 (µM) Rat Hepatocytes (rat primary hepatocytes): inactive
MMP assays efficacy (%) Rat Hepatocytes (rat primary hepatocytes): inactive

CC(C)C(=O)OCC(=O)[C@@]12O[C@H](C3CCCCC3)O[C@@H]1C[C@H]1[C@@H]3CCC4=CC(=O)C=C[C@]4(C)[C@H]3[C@@H](O)C[C@@]12C [Ciclesonide]
IC50 (HepG2 cells [1]; [3]): 7.91 ± 1.38 µM
IC50 (HepG2 cells [2]): 15.5 µM
Emax (HepG2 cells [2]): 103%
MMP assays IC50 (µM) Rat Hepatocytes (rat primary hepatocytes): inactive
MMP assays efficacy (%) Rat Hepatocytes (rat primary hepatocytes): inactive

CN1C(C(=O)Nc2ccccn2)=C(O)c2sc(Cl)cc2S1(=O)=O [Lornoxicam]
MMP assays efficacy (%) qHTS-HepG2 (HepG2 cells [1]): -92±10%
IC50 (HepG2 cells [1]; [4]): 9.44 ± 1.09 µM
IC50 (HepG2 cells [2]): 6.15 µM
Emax (HepG2 cells [2]): 73%
IC50 (rat primary hepatocytes): 3.3 ± 2.52 µM
MMP assays efficacy (%) Rat Hepatocytes (rat primary hepatocytes): -57±10%

CCc1c(C(=O)NN2CCCCC2)nn(-c2ccc(Cl)cc2Cl)c1-c1ccc(Br)cc1 [Surinabant]
MMP assays efficacy (%) qHTS-HepG2 (HepG2 cells [1]): -97±6%
IC50 (HepG2 cells [1]; [4]): 33.1 ± 16.6 µM
IC50 (HepG2 cells [2]): 19.9 µM
Emax (HepG2 cells [2]): 94%
IC50 (rat primary hepatocytes): 34.3 ± 22.5 µM
MMP assays efficacy (%) Rat Hepatocytes (rat primary hepatocytes): -81±29%

CCC(=O)O[C@]1(C(=O)CCl)[C@@H](C)C[C@H]2[C@@H]3C[C@H](F)C4=CC(=O)C=C[C@]4(C)[C@@]3(F)[C@@H](O)C[C@@]21C [Halobetasol propionate]
MMP assays efficacy (%) qHTS-HepG2 (HepG2 cells [1]): -106±7%
IC50 (HepG2 cells [1]; [4]): 15.2 ± 5.52 µM
IC50 (HepG2 cells [2]): 13.8 µM
Emax (HepG2 cells [2]): 127%
IC50 (rat primary hepatocytes): 25.2 ± 7.02 µM
MMP assays efficacy (%) Rat Hepatocytes (rat primary hepatocytes): -82±13%

O=C(O)c1ccccc1Nc1cccc(C(F)(F)F)c1 [Flufenamic acid]
MMP assays efficacy (%) qHTS-HepG2 (HepG2 cells [1]): -129±20%
IC50 (HepG2 cells [1]; [4]): 36.6 ± 1.87 µM
IC50 (HepG2 cells [2]): 17.3 µM
Emax (HepG2 cells [2]): 108%
IC50 (rat primary hepatocytes): 14.5 ± 4.99 µM
MMP assays efficacy (%) Rat Hepatocytes (rat primary hepatocytes): -111±31%

CCC(C)(C)c1ccc(CC(C)CN2C[C@@H](C)O[C@@H](C)C2)cc1 (stereo partly shown) [Amorolfine]
MMP assays efficacy (%) qHTS-HepG2 (HepG2 cells [1]): -63±11%
IC50 (HepG2 cells [1]; [3]): 21.6 ± 3.47 µM
IC50 (HepG2 cells [2]): 17.3 µM
Emax (HepG2 cells [2]): 82%
MMP assays IC50 (µM) Rat Hepatocytes (rat primary hepatocytes): inactive
MMP assays efficacy (%) Rat Hepatocytes (rat primary hepatocytes): inactive

COc1ccc(-c2coc3cc(O)ccc3c2=O)cc1 [Formononetin]
MMP assays efficacy (%) qHTS-HepG2 (HepG2 cells [1]): -85±16%
IC50 (HepG2 cells [1]; [4]): 13.2 ± 4.88 µM
IC50 (HepG2 cells [2]): 17.8 µM
Emax (HepG2 cells [2]): 80%
IC50 (rat primary hepatocytes): 13.2 ± 16.2 µM
MMP assays efficacy (%) Rat Hepatocytes (rat primary hepatocytes): -74±27%

c1ccc(CCCc2ccncc2)cc1 [4-(3-Phenylpropyl)pyridine]
MMP assays efficacy (%) qHTS-HepG2 (HepG2 cells [1]): -63±19%
IC50 (HepG2 cells [1]; [3]): 16.6 ± 6.74 µM
IC50 (HepG2 cells [2]): 14.1 µM
Emax (HepG2 cells [2]): 46%
IC50 (rat primary hepatocytes): 13 ± 6.83 µM
MMP assays efficacy (%) Rat Hepatocytes (rat primary hepatocytes): -82±23%

COc1cc(C(=O)NS(=O)(=O)c2ccccc2C)ccc1Cc1cn(C)c2ccc(NC(=O)OC3CCCC3)cc12 [Zafirlukast]
MMP assays efficacy (%) qHTS-HepG2 (HepG2 cells [1]): -108±3%
IC50 (HepG2 cells [1]; [4]): 10.6 ± 1.22 µM
IC50 (HepG2 cells [2]): 13.8 µM
Emax (HepG2 cells [2]): 105%
IC50 (rat primary hepatocytes): 3.43 ± 1.47 µM
MMP assays efficacy (%) Rat Hepatocytes (rat primary hepatocytes): -114±33%

Cc1cc(O)c(Cl)c(C)c1Cl [2,4-Dichloro-3,5-dimethylphenol]
MMP assays efficacy (%) qHTS-HepG2 (HepG2 cells [1]): -104±10%
IC50 (HepG2 cells [1]; [3]): 5.88 ± 4.85 µM
IC50 (HepG2 cells [2]): 8.91 µM
Emax (HepG2 cells [2]): 95%
MMP assays IC50 (µM) Rat Hepatocytes (rat primary hepatocytes): inactive
MMP assays efficacy (%) Rat Hepatocytes (rat primary hepatocytes): inactive

COC(=O)C1=C(C)NC(C)=C(C(=O)OCCN2CCN(C(c3ccccc3)c3ccccc3)CC2)C1c1cccc([N+](=O)[O-])c1 (stereo not shown) [Manidipine]
MMP assays efficacy (%) qHTS-HepG2 (HepG2 cells [1]): -95±13%
IC50 (HepG2 cells [1]; [4]): 12.2 ± 6.82 µM
IC50 (HepG2 cells [2]): 27.5 µM
Emax (HepG2 cells [2]): 98%
IC50 (rat primary hepatocytes): 20.9 ± 5.06 µM
MMP assays efficacy (%) Rat Hepatocytes (rat primary hepatocytes): -40±8%

Cc1ccc2c(Br)cc(Br)c(O)c2n1 [Broquinaldol]
MMP assays efficacy (%) qHTS-HepG2 (HepG2 cells [1]): -114±44%
IC50 (HepG2 cells [1]; [3]): 26.6 ± 4 µM
IC50 (HepG2 cells [2]): 12.6 µM
Emax (HepG2 cells [2]): 114%
IC50 (rat primary hepatocytes): 38.6 ± 34.6 µM
MMP assays efficacy (%) Rat Hepatocytes (rat primary hepatocytes): -87±93%

OCc1c2ccccc2cc2ccccc12 [Compound 9-Anthracenemethanol]
MMP assays efficacy (%) qHTS-HepG2 (HepG2 cells [1]): -104±23%
IC50 (HepG2 cells [1]; [3]): 34.5 ± 11.5 µM
IC50 (HepG2 cells [2]): 19.9 µM
Emax (HepG2 cells [2]): 88%
IC50 (rat primary hepatocytes): 21.7 ± 15.7 µM
MMP assays efficacy (%) Rat Hepatocytes (rat primary hepatocytes): -68±25%

O=C(Nc1ccc(O)cc1)c1ccccc1O [Osalmid]
MMP assays efficacy (%) qHTS-HepG2 (HepG2 cells [1]): -96±3%
IC50 (HepG2 cells [1]; [4]): 6.68 ± 0.77 µM
IC50 (HepG2 cells [2]): 6.31 µM
Emax (HepG2 cells [2]): 101%
IC50 (rat primary hepatocytes): 30 ± 21.3 µM
MMP assays efficacy (%) Rat Hepatocytes (rat primary hepatocytes): -93±20%

Cc1ccc2c(c1[N+](=O)[O-])C(=O)c1ccccc1C2=O [Compound 2-Methyl-1-nitroanthraquinone]
MMP assays efficacy (%) qHTS-HepG2 (HepG2 cells [1]): -63±13%
IC50 (HepG2 cells [1]; [3]): 1.34 ± 0.15 µM
IC50 (HepG2 cells [2]): 2.77 µM
Emax (HepG2 cells [2]): 88%
IC50 (rat primary hepatocytes): 16.9 ± 14.7 µM
MMP assays efficacy (%) Rat Hepatocytes (rat primary hepatocytes): -84±16%

Oc1ccc(OCc2ccccc2)cc1 [4-(Benzyloxyl)phenol]
MMP assays efficacy (%) qHTS-HepG2 (HepG2 cells [1]): -87±9%
IC50 (HepG2 cells [1]; [3]): 18.5 ± 1.51 µM
IC50 (HepG2 cells [2]): 7.4 µM
Emax (HepG2 cells [2]): 93%
IC50 (rat primary hepatocytes): 9.04 ± 8.1 µM
MMP assays efficacy (%) Rat Hepatocytes (rat primary hepatocytes): -46±35%

ON=C1C=CC(=NO)C=C1 [p-Benzoquinone dioxime]
MMP assays efficacy (%) qHTS-HepG2 (HepG2 cells [1]): -71±6%
IC50 (HepG2 cells [1]; [4]): 43.3 ± 14.9 µM
IC50 (HepG2 cells [2]): 25.1 µM
Emax (HepG2 cells [2]): 58%
MMP assays IC50 (µM) Rat Hepatocytes (rat primary hepatocytes): inactive
MMP assays efficacy (%) Rat Hepatocytes (rat primary hepatocytes): inactive

CC(C)(c1ccc(O)cc1)c1ccc(O)cc1 [Bisphenol A]
MMP assays efficacy (%) qHTS-HepG2 (HepG2 cells [1]): -122±14%
IC50 (HepG2 cells [1]; [3]): 14 ± 6.29 µM
IC50 (HepG2 cells [2]): 15.8 µM
Emax (HepG2 cells [2]): 111%
IC50 (rat primary hepatocytes): 37.6 ± 3.06 µM
MMP assays efficacy (%) Rat Hepatocytes (rat primary hepatocytes): -59±20%

Cc1ccc(C(C)(C)C)c(O)c1 [Compound 2-tert-Butyl-5-methylphenol]
MMP assays efficacy (%) qHTS-HepG2 (HepG2 cells [1]): -96±7%
IC50 (HepG2 cells [1]; [3]): 23.5 ± 2.85 µM
IC50 (HepG2 cells [2]): 5.01 µM
Emax (HepG2 cells [2]): 95%
IC50 (rat primary hepatocytes): 40.1 ± 6.5 µM
MMP assays efficacy (%) Rat Hepatocytes (rat primary hepatocytes): -66±11%

CCC(=O)OCC(=O)[C@@]1(OC(=O)CC)[C@@H](C)C[C@H]2[C@@H]3CCC4=CC(=O)C=C[C@]4(C)[C@@]3(F)[C@@H](O)C[C@@]21C [Betamethasone dipropionate]
MMP assays efficacy (%) qHTS-HepG2 (HepG2 cells [1]): -118±9%
IC50 (HepG2 cells [1]; [3]): 25.6 ± 1.67 µM
IC50 (HepG2 cells [2]): 19.4 µM
Emax (HepG2 cells [2]): 63%
MMP assays IC50 (µM) Rat Hepatocytes (rat primary hepatocytes): inactive
MMP assays efficacy (%) Rat Hepatocytes (rat primary hepatocytes): inactive

Oc1ccc(C(c2ccc(O)cc2)(C(F)(F)F)C(F)(F)F)cc1 [Bisphenol AF]
MMP assays efficacy (%) qHTS-HepG2 (HepG2 cells [1]): -114±10%
IC50 (HepG2 cells [1]; [3]): 5.44 ± 1.42 µM
IC50 (HepG2 cells [2]): 5.01 µM
Emax (HepG2 cells [2]): 102%
IC50 (rat primary hepatocytes): 37.3 ± 6.7 µM

CCN(CC)c1ccc(N)cc1 [N,N-Diethylbenzene-1,4-diamine]
MMP assays efficacy (%) qHTS-HepG2 (HepG2 cells [1]): -103±16%
IC50 (HepG2 cells [1]; [4]): 49.9 ± 3.51 µM
IC50 (HepG2 cells [2]): 7.94 µM
Emax (HepG2 cells [2]): 118%
IC50 (rat primary hepatocytes): 31.6 µM
MMP assays efficacy (%) Rat Hepatocytes (rat primary hepatocytes): -105±29%

O=c1c2ccccc2[se]n1-c1ccccc1 [Ebselen]
MMP assays efficacy (%) qHTS-HepG2 (HepG2 cells [1]): -94±8%
IC50 (HepG2 cells [1]; [3]): 23.2 ± 0.93 µM
IC50 (HepG2 cells [2]): 19.4 µM
Emax (HepG2 cells [2]): 112%
IC50 (rat primary hepatocytes): 21.4 ± 5.35 µM
MMP assays efficacy (%) Rat Hepatocytes (rat primary hepatocytes): -58±5%

Oc1ccc(Cl)c2cccnc12 [Cloxyquin]
MMP assays efficacy (%) qHTS-HepG2 (HepG2 cells [1]): -58±10%
IC50 (HepG2 cells [1]; [3]): 16.8 ± 5.94 µM
IC50 (HepG2 cells [2]): 15.5 µM
Emax (HepG2 cells [2]): 79%
MMP assays IC50 (µM) Rat Hepatocytes (rat primary hepatocytes): inactive
MMP assays efficacy (%) Rat Hepatocytes (rat primary hepatocytes): inactive
